Source: patent publication US11612600B2, “Pharmaceutical composition comprising macitentan for the treatment of chronic thromboembolic pulmonary hypertension” (ACTELION PHARMACEUTICALS LTD, priority 2019, dated 2023)

Tests used:
[1] = Drug-drug interaction in general
BCRP transporters = target: T1, BCRP transporters (Homo sapiens, UniProt Q9UNQ0); test: Effect of macitentan on rosuvastatin pharmacokinetics; assay type: in vivo; details: macitentan 10 mg per day o.d.
T1 construct: BCRP is an efflux pump located in the gut, liver canalicular membrane, and kidney; from tissue; host or cells: in vivo: gut, liver canalicular membrane, kidney
T1 sequence (Q9UNQ0 1-655): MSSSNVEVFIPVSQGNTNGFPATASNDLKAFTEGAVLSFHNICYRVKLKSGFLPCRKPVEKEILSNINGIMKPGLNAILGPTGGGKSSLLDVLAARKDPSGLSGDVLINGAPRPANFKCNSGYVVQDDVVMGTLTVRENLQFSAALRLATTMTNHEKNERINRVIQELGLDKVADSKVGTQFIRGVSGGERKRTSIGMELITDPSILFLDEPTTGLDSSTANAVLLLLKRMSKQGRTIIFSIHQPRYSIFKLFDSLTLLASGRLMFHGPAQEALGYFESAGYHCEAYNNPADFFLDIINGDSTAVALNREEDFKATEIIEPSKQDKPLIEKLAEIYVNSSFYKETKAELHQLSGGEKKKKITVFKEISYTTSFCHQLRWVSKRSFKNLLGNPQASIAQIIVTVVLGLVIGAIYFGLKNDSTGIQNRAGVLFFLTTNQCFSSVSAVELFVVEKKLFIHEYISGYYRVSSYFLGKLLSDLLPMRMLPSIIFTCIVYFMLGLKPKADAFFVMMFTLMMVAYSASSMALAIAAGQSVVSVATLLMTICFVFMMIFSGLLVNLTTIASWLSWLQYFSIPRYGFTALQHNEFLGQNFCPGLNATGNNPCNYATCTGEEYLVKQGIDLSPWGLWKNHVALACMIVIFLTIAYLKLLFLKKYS
Text: BCRP is an efflux pump located in the gut, liver canalicular membrane, and kidney, and is exposed to intracellular drug concentrations in the liver and the kidney.

human PXR = target: T2, human PXR (Homo sapiens, UniProt O75469); test: Activation of human PXR; assay type: cell-based
T2 sequence (O75469 1-434): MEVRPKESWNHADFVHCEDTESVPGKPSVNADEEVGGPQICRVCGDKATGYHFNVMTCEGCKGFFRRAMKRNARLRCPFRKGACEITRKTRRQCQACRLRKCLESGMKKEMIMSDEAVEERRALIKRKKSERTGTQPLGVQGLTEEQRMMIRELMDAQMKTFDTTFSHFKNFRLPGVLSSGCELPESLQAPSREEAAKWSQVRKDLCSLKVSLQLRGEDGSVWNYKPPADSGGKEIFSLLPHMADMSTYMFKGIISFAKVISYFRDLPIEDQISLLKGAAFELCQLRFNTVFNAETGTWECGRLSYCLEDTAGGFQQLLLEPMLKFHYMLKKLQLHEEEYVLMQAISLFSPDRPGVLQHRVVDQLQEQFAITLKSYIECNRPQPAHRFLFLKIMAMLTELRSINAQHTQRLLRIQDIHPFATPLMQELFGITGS

CYP3A4 = CYP3A4 induction in human hepatocytes; assay type: in vitro ADME
[2] = Predicted plasma concentrations in PAH patients at 75 mg per day; assay type: in vivo, human; details: macitentan 75 mg per day; for predicted peak plasma concentration: PAH patients, based on PK Sub-study, assuming dose linearity; for expected free plasma concentration: taking into account protein binding
Description: Predicted peak plasma concentrations of macitentan and ACT-132577 in PAH patients at 75 mg per day dose are expected to be around 5 μM and 14 μM, respectively, based on the PK Sub-study and assuming dose linearity. […] It is not likely that these unbound concentrations of macitentan and ACT-132577 result in any inhibition of BCRP in the liver or kidney or induction of CYP3A4 enzyme in the liver.

[3] = Effect of macitentan on decrease in hemoglobin concentration, pooled Phase I studies, Emax fit; assay type: in vivo, human; details: healthy volunteers
Text: Hemoglobin measurements were pooled from 3 Phase I clinical studies in healthy volunteers: • Study AC-055-102: Investigation of the PK, PD, safety and tolerability of macitentan in male subjects (the study protocol is described in the following publication: Sidharta et al., Safety, tolerability, pharmacokinetics, and pharmacodynamics of macitentan, an endothelin receptor antagonist, in an ascending multiple-dose study in healthy subjects. J. Clin. Pharmacol. (2013), 53(11), 1131-1138) • Study AC-055-116: Investigation of the PK, PD, safety and tolerability of macitentan in male Japanese subjects (the study protocol is described in the following publication: Yokoyama et al., Tolerability, Safety, Pharmacokinetics, and Pharmacodynamics of Macitentan, a New Endothelin Receptor Antagonist, in Healthy Japanese Male Subjects. Rinsho yakuri/Japanese Journal of Clinical Pharmacology and Therapeutics (2016), 47, 143-150) • Study AC-055-117: Investigation of the PK, PD, safety and tolerability of macitentan in male Korean subjects (the study protocol is described in the following publication: Ahn et al., Pharmacokinetic-pharmacodynamic relationships of macitentan, a new endothelin receptor antagonist, after multiple dosing in healthy Korean subjects, Am. […]
Hemoglobin concentrations measured in the morning of Day 11 of macitentan treatment and at baseline on Day −1 were used in the analysis. […]

[4] = cited from earlier work
[5] = rats, cited from earlier work
plasma ET-1 = details: healthy human subjects; 1, 3, 10, 30 mg; cited from earlier work
[6] = continuous IV infusion, patients with PVR greater than 1200 dynes·s·cm^−5 before PEA surgery; cited from earlier work
ET receptors = details: cited from earlier work

CCCNS(=O)(=O)Nc1ncnc(OCCOc2ncc(Br)cn2)c1-c1ccc(Br)cc1 [macitentan, propylsulfamic acid [5-(4-bromo-phenyl)-6-[2-(5-bromo-pyrimidin-2-yloxy)-ethoxy]-pyrimidin-4-yl]-amide]
drug-drug interaction [1]: No Drug-Drug Interaction has been observed
effect on the pharmacokinetics of 1 mg rosuvastatin (BCRP transporters): has not shown any effect
EC50 (human PXR): 1.1 to 1.2 µM
CYP3A4 mRNA and enzyme activity (CYP3A4): concentration-dependent increases
predicted peak plasma concentration [2]: around 5 μM
expected free plasma concentration [2]: 0.02 µM
dose at which the effect on hemoglobin decrease plateaus [3]: 10 mg
maximum effect on hemoglobin decrease (Emax) ([3]; Day 11 vs baseline Day −1): around 1.23 g/dL
absorption into the plasma ([4]; in humans): absorbed slowly
half-life ([4]; in humans): about 16 hours
time to steady state ([4]; in humans): by the third day of administration
dose of maximal or near-maximal effect ([5]; EMA Assessment Report): 10 mg/kg
maximal effective dose [5]: 30 mg/kg
plasma ET-1 concentrations at steady-state (plasma ET-1): no further increase beyond the 10 mg oral dose

CCCCC[C@H](O)/C=C/[C@@H]1[C@H]2C/C(=C/CCCC(=O)O)O[C@H]2C[C@H]1O [epoprostenol]
effect on preoperative cardiac output and PVR [6]: may significantly increase preoperative cardiac output and reduces PVR

NS(=O)(=O)Nc1ncnc(OCCOc2ncc(Br)cn2)c1-c1ccc(Br)cc1 [ACT-132577]
drug-drug interaction [1]: No Drug-Drug Interaction has been observed
EC50 (human PXR): 7.2 to 8.7 µM
CYP3A4 mRNA and enzyme activity (CYP3A4): concentration-dependent increases
predicted peak plasma concentration [2]: ~14 µM
expected free plasma concentration [2]: 0.07 µM
time to peak plasma concentration ([4]; after the first dose of macitentan): about 30 hours
half-life ([4]; in humans): approximately 48 hours
plasma concentrations relative to macitentan ([4]; in vivo): higher plasma concentrations than macitentan
affinity for the ET receptors relative to parent compound (ET receptors): lower affinity
